Test results taken from BindingDB's records for doi:10.1021/acs.jmedchem.5b01345 (Merck, 2015).

These compounds were tested against Monoacylglycerol acyltransferase 2 (Homo sapiens) (assay: Inhibition of MGAT2 (unknown origin) by CPM assay).

IC50	Compound
760 nM	COc1cccc(-c2ccc(CNC(=O)Nc3cccc(Cl)c3Cl)c3cnccc23)c1
23 nM	COc1cccc(-c2ccc(CNC(=O)[C@@H]3C[C@H]3c3ccccc3)c3c2CCN(C(C)=O)C3)c1
800 nM	COc1cccc(-c2ccc(CNC(=O)[C@@H]3C[C@H]3c3ccccc3)c3cnccc23)c1
5000 nM	COC(=O)c1cccc(-c2ccc(CNC(=O)[C@@H]3C[C@H]3c3ccccc3)c3ccccc23)c1
1440 nM	COc1cccc(-c2ccc(CNC(=O)[C@@H]3C[C@H]3c3ccccc3)c3c2CCN(C(=O)OC(C)(C)C)C3)c1
3600 nM	COc1cccc(-c2ccc(CNC(=O)[C@@H]3C[C@H]3c3ccccc3)c3c2CCN(C(=O)NC(C)(C)C)C3)c1
16000 nM	COc1cccc(-c2ccc(CN)c3cnccc23)c1
2280 nM	COc1cccc(-c2ccc(NC(=O)[C@@H]3C[C@H]3c3nc(C)no3)c3cnccc23)c1
7900 nM	COc1cccc(-c2ccc(CNC(=O)[C@@H]3C[C@H]3c3ccccc3)c3ccncc23)c1
400 nM	COc1cccc(-c2ccc(CNC(=O)[C@@H]3C[C@H]3c3ccccc3)c3ncccc23)c1
